Results from US8236984B2, “Compound and use thereof in the treatment of amyloidosis” (Pentraxin Therapeutics Ltd., priority 2007, dated 2012).

What was measured:
[1] = target: transthyretin Ile122 (Homo sapiens, UniProt P02766); assay: Displacement of 125I-T4 from transthyretin in whole serum; type: binding; conditions: read-out: IC50 for displacement of T4 from transthyretin Ile122 in serum; whole serum of heterozygous subjects, mean
Description: (§1) 3.2.3.2. Quantitative studies in serum. […] The immunoprecipitate was recovered by centrifugation, washed twice with 0.1 M Tris, 0.1 M NaCl, pH 8.0 and counted.

[2] = target: transthyretin Ala60 (Homo sapiens, UniProt P02766); assay: as above; type: binding; conditions: read-out: IC50 for displacement of T4 from transthyretin Ala60 in serum; whole serum of heterozygous subjects, mean
Description: as §1

[3] = target: T1, transthyretin Tyr77 (Homo sapiens, UniProt P02766, S97Y); assay: as above; type: binding; conditions: whole serum of heterozygous subjects, mean
T1 construct: The displacement of T4 from transthyretin in whole serum; from tissue; host or cells: whole serum of heterozygous carriers
Description: as §1

[4] = target: transthyretin Met30 (Homo sapiens, UniProt P02766); assay: as above; type: binding; conditions: read-out: IC50 for displacement of T4 from transthyretin Met30 in serum; whole serum of heterozygous subjects, mean
Description: as §1

[5] = target: T2, transthyretin (Homo sapiens, UniProt P02766); assay: Analytical ultracentrifugation (sedimentation velocity and equilibrium); type: biochemical
T2 construct: Native tetrameric transthyretin was purified from fractionated human plasma; from tissue; host or cells: human plasma
Description: 4.1. Analytical ultracentrifugation. Sedimentation velocity and equilibrium analytical centrifugation experiments were performed at 20° C. on a Beckman XL-I instrument equipped with an An50Ti rotor in which both absorbance (recorded at a wavelength of 280 nm) and interference scans were recorded simultaneously. Sedimentation analyses were performed at pH 4.4 by incubating the protein (3.6 μM) for 72 h under the conditions of the stagnant transthyretin aggregation-inhibition assay (Petrassi et al., 2000) in presence of the ligand (3.6 μM). […] Sedimentation velocity data were acquired over 8 h at rotor speed of 42,000 rpm in two-sector cells with solution column heights of 12 mm. Absorbance values were modelled as a continuous distribution of sedimentation coefficients, c(s) (Schuck, 2000) using the software SEDFIT (Schuck, 2005). Sedimentation equilibrium measurements of transthyretin bound to the ligand, in the same conditions used for the sedimentation velocity analysis, were acquired using six-sector cells in an AnTi 50 rotor with column heights of 2 mm at rotor speed of 17,000 rpm until equilibrium was reached as shown by the perfect overlay of runs measured at intervals of 5 h. A final run at 42,000 rpm was performed at the end of the experiment to determine the background levels for use in curve fitting. Data analysis was performed using Beckman software provided as an add-on to Origin Version 4.1 (Microcal Inc.) for which the partial specific volume was calculated to be 0.7353 ml/g from the amino acid sequence (Perkins, 1986). The buffer density and viscosity were calculated using the program […] (Laue et al., 1992). […] Sedimentation equilibrium analysis of transthyretin in the presence of the ligand was entirely consistent with a single species of mass 55,784±107.87 Da, in good agreement with the calculated molecular mass of tetrameric wild type transthyretin with bound 4ajm15 (55794 Da). […]

[6] = target: wild type transthyretin (Homo sapiens, UniProt P02766); assay: Mass spectrometric analysis of ligand dissociation under increasing cone voltage; type: binding; design: made in house
Description: (§2) 4.3. Mass spectrometric analysis of dissociation of 4ajm15 from wild type and amyloidogenic variant transthyretin. ESMS spectra were acquired under increasing cone voltage conditions to induce stepwise dissociation of the ligand from wild type transthyretin and amyloidogenic variants V30M and L55P transthyretin. As the cone voltage increases splitting becomes apparent in the tetramer peaks, corresponding to apo (protein alone) and holo (protein+ligand) transthyretin as ligand begins to dissociate.
(§3) L55P transthyretin and [^15N, ^13C] wild type transthyretin in a 2 fold excess of 4ajm15. […] In spectrum β the onset of 4ajm15 dissociation from wild type tetramer is observed (a) while no ligand dissociation is observed from L55P transthyretin. Dissociation from wild type transthyretin progresses with increasing collisional energy in spectrum γ, but it is not until spectrum δ, where approximately 50% of the wild type is apo, that ligand dissociation from L55P transthyretin is observed (a).
V30M transthyretin and [^15N, ^13C] wild type transthyretin in a 2 fold excess of ligand. In A, at the onset of 4ajm15 dissociation (spectrum β) the peak height corresponding to apo V30M transthyretin is lower than that for wild type (labelled a and a respectively) for each charge state. At high energy level (γ), ligand dissociation from wild type is complete while a proportion of […] V30M remains (h). […]

[7] = target: T3, L55P transthyretin (Homo sapiens, UniProt P02766, L75P); assay: as above; type: binding; conditions: equimolar 4.4 μM with wild type, 2 fold excess of ligand
T3 construct: made in house
Description: as §2, §3

[8] = target: T2, transthyretin; assay: Isothermal titration calorimetry of transthyretin-ligand binding; conditions: ITC, Tris-NaCl pH 8.0, 2% DMSO, 37° C.
Description: 3.3.3 Isothermal titration calorimetry (itc) of transthyretin-mds84 ligand binding: Thermodynamic parameters of transthyretin-mds84 ligand binding were measured directly by isothermal titration calorimetry (VP-ITC, MicroCal LLC, Milton Keynes, UK). An initial injection of 1 μl of mds84 at 0.348 mM was made into transthyretin at a final concentration of 0.029 mM tetramer, followed, at 240 sec intervals, by 35 successive 8 μl injections. The diluent was Tris-NaCl pH 8.0 with 2% (v/v) DMSO. The sample cell was stirred at 310 rpm and cell contents were maintained at 37° C. After correction for volume displacement and plotting against the molar ratio of injected ligand to transthyretin tetramer, integration of the raw thermogram (FIG. 5, upper graph) yielded a binding isotherm (FIG. 5, lower graph) that was best fitted (determined by χ^2 analysis) to a model with a single set of identical sites by non-linear least squares analysis in ORIGIN v7.0 (MicroCal LLC).

| Structure (SMILES) | IC50 [1] [µM] | IC50 [2] [µM] | IC50 [3] [µM] | IC50 [4] [µM] | sedimentation coefficient of transthyretin with bound ligand ([5]; 3.6 μM protein, 3.6 μM ligand, 72 h 37° C., pH 4.4) [S] | mass of single species by sedimentation equilibrium ([5]; 3.6 μM protein, 3.6 μM ligand, pH 4.4) | quaternary structure under tetramer-dissociating conditions ([5]; 72 h at 37° C. and pH 4.4) | peak height of apo wild type transthyretin at onset of dissociation (spectrum β) ([6]; equimolar 4.4 μM with V30M, 2 fold excess of ligand) [%] | relative binding avidities for ligand among transthyretin forms ([6]; wild type versus V30M and L55P, increasing cone voltage) | dissociation of ligand from L55P transthyretin [7] | proportion of wild type that is apo when dissociation from L55P is first observed (spectrum δ) [7] | enthalpy (ΔH) [8] [kcal/mol] | Kd ([8]; 0.029 mM tetramer, read-out: dissociation constant (Kd)) [µM] |
| --- | --- | --- | --- | --- | --- | --- | --- | --- | --- | --- | --- | --- | --- |
| O=C(O)c1ccccc1Nc1cc(Cl)c(OCCCCCCCCCCCOc2c(Cl)cc(Nc3ccccc3C(=O)O)cc2Cl)c(Cl)c1 [4ajm15, 2,2′-(4,4′-(undecane-1,11-diylbis(oxy))bis(3,5-dichloro-4,1-phenylene))bis(azanediyl)dibenzoic acid] | 29.4 | 26.5 | 26.2 | 61.6 | 3.7 | 55,784±107.87 Da | remains tetrameric | ~75 | wild type transthyretin<V30M transthyretin<L55P transthyretin | only at higher collisional energy than wild type | approximately 50% |  |  |
| O=C(O)c1ccccc1Nc1cc(Cl)c(OCCCCCCCOc2c(Cl)cc(Nc3ccccc3C(=O)O)cc2Cl)c(Cl)c1 [mds84, 2,2′-(4,4′-(heptane-1,7-diylbis(oxy))bis(3,5-dichloro-4,1-phenylene))bis(azanediyl)dibenzoic acid] |  |  |  |  |  |  |  |  |  |  |  | -7.95 | 0.505 |
